Measurements published in ChEMBL document CHEMBL2396549, “The discovery of BMS-457, a potent and selective CCR1 antagonist” (Bioorg Med Chem Lett, 2013).
Calls of active or inactive are those of the source. No cut-off for these calls is given here.

Columns and labels:
[1] = target: T1, C-C chemokine receptor type 1 (Homo sapiens, UniProt P32246); assay: Antagonist activity at human CCR1 assessed as inhibition of MIP1alpha-induced chemotaxis
T1 sequence (P32246 whole entry): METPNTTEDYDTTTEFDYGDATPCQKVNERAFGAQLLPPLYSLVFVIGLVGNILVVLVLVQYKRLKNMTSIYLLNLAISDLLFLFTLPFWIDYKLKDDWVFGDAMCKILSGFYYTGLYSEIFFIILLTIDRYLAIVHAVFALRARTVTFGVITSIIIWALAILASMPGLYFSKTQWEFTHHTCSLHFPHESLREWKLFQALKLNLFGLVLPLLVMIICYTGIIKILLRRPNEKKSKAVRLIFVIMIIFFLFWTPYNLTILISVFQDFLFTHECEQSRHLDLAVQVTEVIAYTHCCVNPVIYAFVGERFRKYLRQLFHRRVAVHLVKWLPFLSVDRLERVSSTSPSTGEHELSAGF

[2] = target: T1, C-C chemokine receptor type 1; assay: Binding affinity to human CCR1
[3] = Antagonist activity at human CCR1 assessed as inhibition of MIP1alpha-induced chemotaxis
[4] = Metabolic stability in monkey liver microsomes assessed as compound remaining; format: ADME, Macaca mulatta, Microsome; conditions: rhesus monkey
Liver = assay: Metabolic stability in mouse liver microsomes assessed as compound remaining; format: ADME, Microsome
[5] = (§1) Inhibition of sodium channel (unknown origin); parameters: species or system Homo sapiens
Liver microsomes [6] = assay: Metabolic stability in rat liver microsomes assessed as compound remaining; format: ADME, Microsome
[7] = target: T2, Nuclear receptor subfamily 1 group I member 2 (Homo sapiens, UniProt O75469); assay: Induction of PXR (unknown origin)
T2 sequence (O75469 whole entry): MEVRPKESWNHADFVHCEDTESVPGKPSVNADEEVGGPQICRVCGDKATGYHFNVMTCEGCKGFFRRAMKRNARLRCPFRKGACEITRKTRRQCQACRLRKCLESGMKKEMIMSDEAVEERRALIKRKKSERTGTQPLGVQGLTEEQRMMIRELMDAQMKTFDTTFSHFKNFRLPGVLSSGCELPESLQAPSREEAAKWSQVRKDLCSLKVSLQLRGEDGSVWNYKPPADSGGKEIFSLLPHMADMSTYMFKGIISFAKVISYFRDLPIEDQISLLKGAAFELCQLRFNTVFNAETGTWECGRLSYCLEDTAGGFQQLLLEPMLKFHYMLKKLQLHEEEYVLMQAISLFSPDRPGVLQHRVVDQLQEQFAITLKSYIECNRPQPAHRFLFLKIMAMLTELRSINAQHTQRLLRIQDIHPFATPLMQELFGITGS

[8] = (§2) Inhibition of calcium channel (unknown origin); parameters: species or system Homo sapiens
Liver microsomes [9] = assay: Metabolic stability in human liver microsomes assessed as compound remaining; format: ADME, Microsome
Homo sapiens [10] = organism: Homo sapiens; assay: Inhibition of sodium channel (unknown origin) at 10 uM
[11] = Oral bioavailability in mouse at 9 mg/kg; format: ADME, organism-based; conditions: in vivo
Cytochrome P450 2C9 = Cytochrome P450 2C9 (Homo sapiens, UniProt P11712); assay: Inhibition of CYP2C9 (unknown origin); format: ADME
Cytochrome P450 1A2 = target: T3, Cytochrome P450 1A2 (Homo sapiens, UniProt P05177); assay: Inhibition of CYP1A2 (unknown origin); format: ADME
T3 sequence (P05177 whole entry): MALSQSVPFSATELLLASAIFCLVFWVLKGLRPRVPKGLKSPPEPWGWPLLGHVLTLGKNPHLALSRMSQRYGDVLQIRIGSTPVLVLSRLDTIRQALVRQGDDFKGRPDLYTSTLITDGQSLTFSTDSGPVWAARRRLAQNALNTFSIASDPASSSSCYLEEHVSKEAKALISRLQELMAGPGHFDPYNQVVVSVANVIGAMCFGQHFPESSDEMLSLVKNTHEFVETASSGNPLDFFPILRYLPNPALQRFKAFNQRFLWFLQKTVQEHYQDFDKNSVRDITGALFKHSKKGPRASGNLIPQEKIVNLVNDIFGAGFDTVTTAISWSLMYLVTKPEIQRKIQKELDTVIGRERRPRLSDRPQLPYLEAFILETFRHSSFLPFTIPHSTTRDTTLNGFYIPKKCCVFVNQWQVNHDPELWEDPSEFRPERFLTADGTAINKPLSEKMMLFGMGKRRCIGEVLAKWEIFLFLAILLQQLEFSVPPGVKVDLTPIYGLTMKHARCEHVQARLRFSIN

[12] = Fraction unbound in human serum; format: ADME, cell-free
Homo sapiens [13] = organism: Homo sapiens; assay: as §1
Cytochrome P450 2C19 = Cytochrome P450 2C19 (Homo sapiens, UniProt P33261); assay: Inhibition of CYP2C19 (unknown origin); format: ADME
[14] = target: T1, C-C chemokine receptor type 1; assay: Antagonist activity at CCR1 in whole blood (unknown origin) assessed as inhibition of LKN1-induced upregulation of beta2-integrin CD11b
Homo sapiens [15] = organism: Homo sapiens; assay: Inhibition of calcium channel (unknown origin) at 10 uM
hERG (KCNH2) = hERG (KCNH2) (Homo sapiens, UniProt Q12809); assay: Inhibition of human ERG at 10 uM by patch clamp assay
Cytochrome P450 3A4 = Cytochrome P450 3A4 (Homo sapiens, UniProt P08684); assay: Inhibition of CYP3A4 (unknown origin); format: ADME
Homo sapiens [16] = organism: Homo sapiens; assay: as §2
[17] = target: Voltage-gated inwardly rectifying potassium channel KCNH2 (Homo sapiens, UniProt Q12809); assay: Inhibition of human ERG by patch clamp assay
[18] = Oral bioavailability in cynomolgus monkey at 2 mg/kg; format: ADME, organism-based, Macaca fascicularis; conditions: in vivo
Cytochrome P450 2D6 = Cytochrome P450 2D6 (Homo sapiens, UniProt P10635); assay: Inhibition of CYP2D6 (unknown origin); format: ADME
[19] = target: T1, C-C chemokine receptor type 1; assay: Antagonist activity at CCR1 in whole blood (unknown origin) assessed as inhibition of MIP1alpha-induced upregulation of beta2-integrin CD11b

Cytochrome P450 3A4, sequence (P08684 whole entry): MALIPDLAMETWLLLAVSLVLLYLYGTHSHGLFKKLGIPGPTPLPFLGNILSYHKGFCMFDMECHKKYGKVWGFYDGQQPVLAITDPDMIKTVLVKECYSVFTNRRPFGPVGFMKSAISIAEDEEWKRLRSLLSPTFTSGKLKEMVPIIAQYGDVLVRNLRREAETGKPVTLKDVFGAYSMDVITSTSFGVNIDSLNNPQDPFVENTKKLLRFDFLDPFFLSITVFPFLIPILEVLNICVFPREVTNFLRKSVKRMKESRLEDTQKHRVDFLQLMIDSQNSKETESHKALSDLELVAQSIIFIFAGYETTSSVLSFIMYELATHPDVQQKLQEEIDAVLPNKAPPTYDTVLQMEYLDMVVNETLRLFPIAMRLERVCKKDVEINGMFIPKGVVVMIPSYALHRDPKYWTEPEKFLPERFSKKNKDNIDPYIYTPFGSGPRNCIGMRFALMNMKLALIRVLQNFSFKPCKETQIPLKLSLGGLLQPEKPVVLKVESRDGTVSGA
Cytochrome P450 2C19, sequence (P33261 whole entry): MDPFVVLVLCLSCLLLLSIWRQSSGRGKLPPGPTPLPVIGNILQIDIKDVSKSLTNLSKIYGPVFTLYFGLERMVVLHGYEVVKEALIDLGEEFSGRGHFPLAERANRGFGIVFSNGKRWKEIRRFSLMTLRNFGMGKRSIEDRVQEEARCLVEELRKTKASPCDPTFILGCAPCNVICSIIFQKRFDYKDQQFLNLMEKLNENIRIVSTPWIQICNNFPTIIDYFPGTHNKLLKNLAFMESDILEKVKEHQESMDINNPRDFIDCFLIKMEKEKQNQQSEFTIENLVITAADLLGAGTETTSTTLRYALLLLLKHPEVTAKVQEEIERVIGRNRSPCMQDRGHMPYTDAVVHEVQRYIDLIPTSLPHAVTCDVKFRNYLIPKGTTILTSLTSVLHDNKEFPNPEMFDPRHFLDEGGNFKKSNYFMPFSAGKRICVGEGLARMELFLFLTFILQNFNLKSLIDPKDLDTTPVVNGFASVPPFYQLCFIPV
Cytochrome P450 2C9, sequence (P11712 whole entry): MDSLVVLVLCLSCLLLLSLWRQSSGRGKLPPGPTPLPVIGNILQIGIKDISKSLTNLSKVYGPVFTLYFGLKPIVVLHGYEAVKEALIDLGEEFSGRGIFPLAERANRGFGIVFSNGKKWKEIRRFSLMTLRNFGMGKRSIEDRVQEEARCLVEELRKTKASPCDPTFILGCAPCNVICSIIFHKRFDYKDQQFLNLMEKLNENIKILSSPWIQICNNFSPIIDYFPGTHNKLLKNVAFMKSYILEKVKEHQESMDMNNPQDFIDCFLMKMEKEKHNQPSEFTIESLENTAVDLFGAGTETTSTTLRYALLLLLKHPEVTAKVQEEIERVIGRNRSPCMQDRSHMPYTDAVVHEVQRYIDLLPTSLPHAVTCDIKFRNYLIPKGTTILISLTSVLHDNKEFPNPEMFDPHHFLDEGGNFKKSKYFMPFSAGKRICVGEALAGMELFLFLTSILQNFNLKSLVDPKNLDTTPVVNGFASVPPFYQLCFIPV
Cytochrome P450 2D6, sequence (P10635 whole entry): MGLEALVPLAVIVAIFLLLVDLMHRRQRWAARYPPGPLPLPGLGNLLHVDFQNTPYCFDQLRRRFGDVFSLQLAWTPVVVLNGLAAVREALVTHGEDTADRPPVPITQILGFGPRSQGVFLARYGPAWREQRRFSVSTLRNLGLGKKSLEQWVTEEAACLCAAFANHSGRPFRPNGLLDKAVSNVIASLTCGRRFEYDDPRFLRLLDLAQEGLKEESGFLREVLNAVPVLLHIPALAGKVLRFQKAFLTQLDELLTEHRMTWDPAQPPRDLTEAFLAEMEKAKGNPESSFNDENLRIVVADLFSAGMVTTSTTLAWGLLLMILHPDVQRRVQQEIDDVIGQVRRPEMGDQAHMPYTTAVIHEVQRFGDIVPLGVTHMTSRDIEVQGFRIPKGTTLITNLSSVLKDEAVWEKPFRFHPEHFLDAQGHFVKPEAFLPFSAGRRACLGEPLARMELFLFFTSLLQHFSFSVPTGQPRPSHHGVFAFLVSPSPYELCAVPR
hERG (KCNH2), sequence (Q12809 whole entry): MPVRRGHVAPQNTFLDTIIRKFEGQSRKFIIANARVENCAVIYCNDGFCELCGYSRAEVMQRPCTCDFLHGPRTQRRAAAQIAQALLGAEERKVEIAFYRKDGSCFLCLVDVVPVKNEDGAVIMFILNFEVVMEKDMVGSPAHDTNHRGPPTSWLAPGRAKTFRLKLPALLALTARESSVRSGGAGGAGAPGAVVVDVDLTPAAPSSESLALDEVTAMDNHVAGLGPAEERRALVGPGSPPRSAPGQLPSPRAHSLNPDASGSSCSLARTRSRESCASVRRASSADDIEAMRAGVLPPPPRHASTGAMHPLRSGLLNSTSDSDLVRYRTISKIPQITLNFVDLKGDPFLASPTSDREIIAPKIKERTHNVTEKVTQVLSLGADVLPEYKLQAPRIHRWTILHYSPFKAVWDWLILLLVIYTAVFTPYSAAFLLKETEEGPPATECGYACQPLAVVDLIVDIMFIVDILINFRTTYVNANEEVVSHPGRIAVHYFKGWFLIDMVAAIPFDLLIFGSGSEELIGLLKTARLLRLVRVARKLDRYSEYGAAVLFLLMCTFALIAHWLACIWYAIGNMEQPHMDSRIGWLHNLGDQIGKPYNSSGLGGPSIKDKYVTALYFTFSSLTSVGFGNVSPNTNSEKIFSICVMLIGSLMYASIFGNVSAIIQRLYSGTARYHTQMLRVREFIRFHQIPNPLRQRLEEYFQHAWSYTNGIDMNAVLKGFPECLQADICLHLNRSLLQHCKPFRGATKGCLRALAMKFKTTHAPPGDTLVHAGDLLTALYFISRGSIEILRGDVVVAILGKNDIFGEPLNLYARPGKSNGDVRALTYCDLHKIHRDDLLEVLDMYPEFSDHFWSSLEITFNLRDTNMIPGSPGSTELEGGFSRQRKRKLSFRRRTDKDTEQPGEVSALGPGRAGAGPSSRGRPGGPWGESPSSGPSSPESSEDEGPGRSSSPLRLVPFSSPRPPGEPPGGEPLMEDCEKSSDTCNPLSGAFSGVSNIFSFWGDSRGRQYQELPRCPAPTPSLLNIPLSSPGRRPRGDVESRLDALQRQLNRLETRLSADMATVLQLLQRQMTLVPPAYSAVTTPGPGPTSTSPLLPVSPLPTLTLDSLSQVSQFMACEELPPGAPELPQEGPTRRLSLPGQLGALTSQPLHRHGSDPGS
Voltage-gated inwardly rectifying potassium channel KCNH2, sequence (Q12809 whole entry): as above

Row | SMILES | IC50 [2] [µM] | Stability [4] [%] | Stability (Liver) [%] | IC50 [5] [µM] | Stability (Liver microsomes [6]) [%] | EC50 [7] [µM] | IC50 [8] [µM] | Stability (Liver microsomes [9]) [%] | also measured
1 | CC(C)[C@H](CN1CC[C@](O)(c2ccc(Cl)cc2)C(C)(C)C1)NC(=O)c1ccccc1 | 2.24 |  |  |  |  |  |  |  | IC50 [1]: Not Active
2 | CC(C)[C@@H](NC(=O)c1ccccc1)C(=O)N1CCC(c2ccc(Cl)cc2)CC1 | 0.03 |  |  |  |  |  |  |  | IC50 [3]: 0.078 µM
3 | CC(C)[C@@H](NC(=O)[C@@H]1CCC[C@@H]1N)C(=O)N1CC[C@](O)(c2ccc(Cl)cc2)C(C)(C)C1 | 0.0022 | 93 | 92 | 39 | 93 | 8.5 | 21 | 94 | 

Second part, led by results:

Row | IC50 [2] [µM] | Stability [4] [%] | Stability (Liver) [%] | IC50 [5] [µM] | Stability (Liver microsomes [6]) [%] | EC50 [7] [µM] | IC50 [8] [µM] | Stability (Liver microsomes [9]) [%] | SMILES | also measured
4 | 0.0023 | 1 | 49 | > 80 | 20 | 1.4 | 61 | 33 | CC(C)[C@@H](NC(=O)[C@@H]1CCC[C@@H]1O)C(=O)N1CC[C@](O)(c2ccc(Cl)cc2)C(C)(C)C1 (relative stereo) | 
5 | 0.0008 | 66 | 88 |  | 87 |  |  | 98 | CC(C)[C@@H](NC(=O)[C@@H]1CC[C@@H](O)C1)C(=O)N1CC[C@](O)(c2ccc(Cl)cc2)C(C)(C)C1 (mixture of isomers) | inhibition (Homo sapiens [10]): 14%; bioavailability [11]: 100%; inhibition (INH) (Cytochrome P450 2C9): Not Active; inhibition (INH) (Cytochrome P450 1A2): Not Active; fraction unbound [12]: 0.16; inhibition (Homo sapiens [13]): inactive; inhibition (INH) (Cytochrome P450 2C19): Not Active; IC50 [14]: 0.054 µM; inhibition (Homo sapiens [15]): 11%; inhibition at 10 µM (hERG (KCNH2)): 3%; inhibition (INH) (Cytochrome P450 3A4): Not Active; EC20 ([7]; human): 41 µM; EC60 ([7]; human): > 50 µM; inhibition (Homo sapiens [16]): inactive; INH [17]: > 80 µM; bioavailability [18]: 54%; inhibition (INH) (Cytochrome P450 2D6): Not Active; IC50 [19]: 0.046 µM
